# US8337447B2, “Device for delivery of antifibrotic agents and method” (priority 2006, dated 2012)
# System: human conjunctival fibroblasts
# Assay: Polymer cytotoxicity in vitro, toluidine blue staining after 7 days of culture
# Type: cell-based
# Details: MMC incorporated in salt-free P-HEMA hydrogel (Procedure 2), exponential fit, r2 0.95
# Method: Measurement of polymer cytotoxicity in vitro: A single 8 mm disk of sterile polymer was affixed to the center of each 60 mm tissue culture dish with clear RTV silicone cement. The silicone cement was sterile as it came from the tube and care was taken during this procedure to maintain the sterility of both the polymer and the tissue culture dish. The cement was allowed to cure for 1-2 hours in a sterile environment, until no odor of acetic acid could be detected. […] The culture medium was removed and the cell layer was gently washed 3 times with 5 ml of phosphate-buffered saline. […] In some cases, the solutions had to be diluted with 2% aqueous sodium dodecyl sulfate to bring the absorbance within the linear range of the spectrophotometer. […]
# Once these parameters had been determined, the study was repeated with early passage cultures human conjunctival fibroblasts, the cell type against which these slow release polymers will ultimately be targeted. […]
# A single 8 mm disk of polymer was affixed to each culture dish with silicone cement and cells were fixed and stained 7 days after inoculation, as described in Methods. After solubilization of the cell-bound dye, the color (measured as absorbance at 650 nm) was a measure of the number of cells in each dish. […]
smiles,measurement,value
"CO[C@@]12[C@H](COC(N)=O)C3=C(C(=O)C(C)=C(N)C3=O)N1C[C@@H]1N[C@@H]12 [MMC, mitomycin C]",concentration of MMC that inhibited 50% of cell proliferation (IC50),0.15 mg/g dried gel
